Measured values reported in patent US20050009929A1, “Inhibition of the asexual reproduction of fungi” (priority 2001, published 2005).

System: Aspergillus niger
Test: Effect of farnesol on the sporulation of Aspergillus niger on malt extract agar
Format: cell-based
Settings: 5 days at 25° C.; for Sporulation [%]: evaluated by appearance
Experimental: Quantities of 100 μl of a cell suspension of Aspergillus niger (1.5·10^7 cells/ml) were plated out onto malt agar extract (Merck) to which farnesol had been added in various quantities of 0; 25; 62.5; 125; 250 and 500 μM.

In the case of `CC(C)=CCCC(C)=CCCC(C)=CCO` [farnesol], the “Sporulation [%]” value (farnesol 25 μM in agar) is reported as 90%, the “Sporulation [%]” value (farnesol 62.5 μM in agar) is reported as 75% and the “Sporulation [%]” value (farnesol 125 μM in agar) is reported as 50%. For the same molecule, the “Sporulation [%]” value (farnesol 250 μM in agar) was 10%, the “inhibition of sporulation (in words)” value (farnesol 500 μM in agar) was “completely suppressed” and the “Sporulation [%]” value (farnesol 500 μM in agar) was 0%. For the same molecule, the inhibition of growth (farnesol 25 to 500 μM in agar) was “None of the farnesol concentrations used inhibited growth”.
